Usually IC50 stands for the concentration at which inhibition is half-maximal. In general, inhibition refers to the relative decrease from the control value, in per cent. Higher therefore signals a response far below the control.

The values that follow come from patent US20060079497A1, “Lavendamycin analogues and methods of synthesizing and using lavendamycin analogues” (Ball State University, priority 2004, published 2006).

Experiment [1] deals with T1, HIV reverse transcriptase (HIV-RT) (Human immunodeficiency virus type 1 group M subtype B, UniProt P04585).
T1 construct: 1 unit/mL of HIV-RT (Worthington Biochemical Corp., Freehold, N.J.); purchased Worthington Biochemical Corp., Freehold, N.J
Put plainly: HIV-RT assay (3H-TTP incorporation, modified assay of Okada et al.). The class given is biochemical. The procedure:
Briefly, the analogues were initially dissolved in either DMSO or HEPES buffer (pH 7.2) and then diluted to the appropriate concentration before addition to the assay mixtures. […] Several control wells without any inhibitors were also included on each microtiter plate. The reactions were allowed to proceed for 1 h at 37° C. […] A more detailed description of reaction conditions is provided below in the Examples. The concentration of drug which inhibited 50% of the enzyme activity (IC50) was determined by using the computer software program Calcusyn, which plots the dose-effect curves from the inhibition data and calculates the IC50 for each drug.
(§1) The assay procedure described below is adapted from Okada et al. (Okada, H.; Mukai, H.; Inouye, Y; Nakamura, S. “Biological Properties of Streptonigrin Derivatives II. Inhibition of Reverse Transcriptase Activity,” J. Antibiot., 1986, 39, 306-308). The lavendamycin analogs were initially dissolved in DMSO at a concentration of 1 mg/mL. Occasionally, mild sonication and heat were used to dissolve the less soluble compounds. The dissolved analogs were then serially diluted in distilled water to achieve concentrations in the final reaction mixture ranging from 0.5-15 μM. In addition to the lavendamycin analogs, the final reaction mixture contained 100 mM Tris-HCl (pH 8.0), 5 mM MgCl2, 5 mM dithiothreitol, 60 mM NaCl, 0.2 mM [^3H] thymidine triphosphate(5 μCi well), 4 μg/mL poly (rA)-oligo(dT)12-18 (Amersham Pharmacia Biotech, Piscataway, N.J.) and 1 unit/mL of HIV-RT (Worthington Biochemical Corp., Freehold, N.J.) in a total volume of 300 μL. For each assay, the reaction mixture containing 8× buffer, double distilled H2O, ^3HTTP, template-primer and HIV-RT was pre-mixed in a 15-mL sterile tube in quantities required for the particular experiment. After adding the enzyme, the reaction mixture was mixed and kept on ice. The inhibitors, either AZT(Moravek Biochemicals, Brea, Calif.), analogs or both were added to appropriate wells in a 24 well microtiter plate and ddH2O was added to each well to bring the volume of all test wells to 100 μL. Two hundred μL of the chilled reaction mixture was then added to each of the test wells, mixed, and incubated for 1 hr at 37° C. Several control wells with no inhibitors were included on each test plate. After stopping the reactions with 25 μL 0.1 M EDTA, triplicate samples of 15 μL from each test well were spotted on DE81 ion exchange filter paper squares (Whatman Paper, Maidstone, England). After drying, each filter was washed for 10 minutes three times with 5% TCA-NHPO4, three times with 0.6M NaCl-[…] Na Citrate, one time with ddH2O and one time with 95% ethanol. After drying the individual filter papers were added to 5 mL Scintiverse E (Fisher Scientific, Chicago, Ill.) scintillation fluid and the amount of 3H-TTP uptake measured as counts per minute on a Beckman liquid scintillation counter. […] The results were then analyzed using Calcusyn, a windows software program for dose effect analysis designed by T. -C. Chou and M. P. Hayball and published by Biosoft® (UK).

In a further experiment the target is T2, HIV-RT (Human immunodeficiency virus type 1 group M subtype B, UniProt P04585).
T2 construct: 1 unit/mL of HIV-RT (Worthington Biochemical Corp., Freehold, N.J.); purchased Worthington Biochemical Corp., Freehold, N.J
The experiment in a line: Checkerboard combination of lavendamycin analogs with AZT-triphosphate in HIV-RT enzyme assay (Chou and Talalay). The class given is biochemical. The procedure: The results were analyzed by the method of Chou and Talalay based on the median-effect principle and represented by combination indices (CI) determined for each of the two drug combinations (e.g., see: Chou, T. C.; Talalay, P. “Quantitative Analysis of Dose-Effect Relationships: The Combined Effects of Multiple Drugs or Enzyme Inhibitors,” Adv. Enzyme Regul., 1984, 22, 27-65; and Chou, J.; Chou, T. C. “Dose-Effect Analysis with Microcomputers: Quantitation of ED50, LD50, Synergism, Antagonism, Low-Dose Risk, Receptor-Ligand Binding and Enzyme Kinetics,” In: A computer Software for IBM-PC and Manual, Cambridge, UK, Elsevier-Biosoft, 1987). This method involves the plotting of dose-effect curves for each agent and for each of the different combinations of the agents. The slope of the median-effect plot, which signifies the shape of the dose-effect curve, and the x intercept of the plot, which signifies the potency of each compound alone and each combination, were then used for a computerized calculation of a combination index.
as §1

Setting [2] is: 50% inhibition of HIV RT activity toward 1 unit of enzyme, read-out: Mean IC50 ± SEM (no. of expts).
Where [3] appears, read: analogue 0.25 μM + AZT 0.007 μM, Trial 1.
Setting [4] is: analogue 0.25 μM + AZT 0.007 μM, Trial 2.
Setting [5] is: analogue 0.25 μM + AZT 0.01 μM, Trial 1.
[6] abbreviates: analogue 0.25 μM + AZT 0.01 μM, Trial 2.
Setting [7] is: analogue 0.25 μM + AZT 0.02 μM, Trial 1.
Where [8] appears, read: analogue 0.25 μM + AZT 0.02 μM, Trial 2.
[9] abbreviates: analogue 0.5 μM + AZT 0.007 μM, Trial 1.
The mark [10] stands for this setting: analogue 0.5 μM + AZT 0.007 μM, Trial 2.
[11] abbreviates: analogue 0.5 μM + AZT 0.01 μM, Trial 1.
Setting [12] is: analogue 0.5 μM + AZT 0.01 μM, Trial 2.
[13] abbreviates: analogue 0.5 μM + AZT 0.02 μM, Trial 1.
Where [14] appears, read: analogue 0.5 μM + AZT 0.02 μM, Trial 2.
Setting [15] is: analogue 0.75 μM + AZT 0.01 μM, Trial 1.
Where [16] appears, read: analogue 0.75 μM + AZT 0.01 μM, Trial 2.
The mark [17] stands for this setting: analogue 0.75 μM + AZT 0.02 μM, Trial 1.
Setting [18] is: analogue 0.75 μM + AZT 0.02 μM, Trial 2.
The mark [19] stands for this setting: analogue 1.5 μM + AZT 0.007 μM, Trial 1.
The mark [20] stands for this setting: analogue 1.5 μM + AZT 0.007 μM, Trial 2.
[21] abbreviates: analogue 1.5 μM + AZT 0.01 μM, Trial 1.
[22] abbreviates: analogue 1.5 μM + AZT 0.01 μM, Trial 2.
Where [23] appears, read: analogue 1.5 μM + AZT 0.02 μM, Trial 1.
Setting [24] is: analogue 1.5 μM + AZT 0.02 μM, Trial 2.

Several values for one entry are separate records, joined by “and”; a condition that tells them apart may be missing. Equal values may be shown once. Read-outs that look alike come from different tables or passages of the source.

On to `CCCCOC(=O)c1cc2c([nH]c3ccccc32)c(-c2ccc3c(n2)C(=O)C(NC(=O)CCC)=CC3=O)n1` [Compound 12, 7-N-n-Butyryidemethyllavendamycin n-Butyl Ester], for which the values for the IC50 in experiment [1] (setting [2]) and in experiment [1] (read-out: IC50 against HIV-RT) were 5.8 ± 1.5 µM and less than 8 µM, respectively. Also, the Combination index is 1.30 and 1.60 on HIV-RT; 0.82 on HIV-RT (setting [3]); 0.83 on HIV-RT (setting [4]); 0.58 on HIV-RT (setting [5]); 0.58 on HIV-RT (setting [6]); 0.59 on HIV-RT (setting [7]). In addition, the Combination index was 0.50 at HIV-RT (setting [8]); 0.88 at HIV-RT (setting [9]); 0.71 at HIV-RT (setting [10]); 0.76 on HIV-RT (setting [11]); 0.76 on HIV-RT (setting [12]); 0.85 at HIV-RT (setting [13]). Moreover, the Combination index at HIV-RT (setting [14]) is on record as 0.93; on HIV-RT (setting [15]) it was 0.86; at HIV-RT (setting [16]), 0.99; on HIV-RT (setting [17]) it was 1.00; at HIV-RT (setting [18]), 0.92; on HIV-RT (setting [19]), 1.30. Besides, the Combination index stood at 1.20 on HIV-RT (setting [20]); 0.81 on HIV-RT (setting [21]); 0.91 on HIV-RT (setting [22]); 1.10 on HIV-RT (setting [23]); 0.96 on HIV-RT (setting [24]).

With `COC(=O)c1nc(-c2ccc3c(n2)C(=O)C(NC(C)=O)=CC3=O)c2[nH]c3ccccc3c2c1C` [Compound 11, 7-acetyllavendamycin methyl ester], the IC50 in experiment [1] (Mean IC50 ± SEM (no. of expts), 50% inhibition of HIV RT activity toward 1 unit of enzyme) was 15.1 ± 5.9 µM. The Combination index is 1.00 and 1.30 at HIV-RT; 0.57 at HIV-RT (setting [3]); 0.48 on HIV-RT (setting [4]); 0.94 on HIV-RT (setting [5]); 0.89 on HIV-RT (setting [6]); 0.90 at HIV-RT (setting [7]). The Combination index on HIV-RT (setting [8]) is listed as 0.68; on HIV-RT (setting [9]), 0.81; on HIV-RT (setting [10]), 0.71; at HIV-RT (setting [11]), 0.84; on HIV-RT (setting [12]), 0.76; at HIV-RT (setting [13]) it was 0.72. The Combination index at HIV-RT (setting [14]) came to 0.84; on HIV-RT (setting [15]), 1.20; at HIV-RT (setting [16]), 1.08; at HIV-RT (setting [17]), 0.94; at HIV-RT (setting [18]) it was 0.84; at HIV-RT (setting [19]), 1.40. The Combination index was 1.23 at HIV-RT (setting [20]); 1.40 at HIV-RT (setting [21]); 1.12 on HIV-RT (setting [22]); 1.17 on HIV-RT (setting [23]); 1.08 on HIV-RT (setting [24]).

In the case of `CC(=O)NC1=CC(=O)c2ccc(-c3nc(C(=O)OCCOP(=O)(O)O)cc4c3[nH]c3ccccc34)nc2C1=O` [Compound 19], in experiment [1] (15 μM), the inhibition at 15 µM is greater than 92%. In addition, in experiment [1] (IC50 against HIV-RT), the IC50 was < 8 µM and 3 µM. The Combination index was determined as 0.47 on HIV-RT (analogue 0.75 μM + AZT 0.007 μM, Trial 1); 0.68 on HIV-RT (analogue 0.75 μM + AZT 0.007 μM, Trial 2); 0.64 at HIV-RT (setting [15]); 1.04 on HIV-RT (setting [16]); 0.49 on HIV-RT (setting [19]); 0.81 on HIV-RT (setting [20]). The Combination index on HIV-RT (setting [21]) turned out to be 0.69; on HIV-RT (setting [22]), 0.69; on HIV-RT (analogue 3 μM + AZT 0.007 μM, Trial 1), 0.49; at HIV-RT (analogue 3 μM + AZT 0.007 μM, Trial 2), 0.79; at HIV-RT (analogue 3 μM + AZT 0.01 μM, Trial 1), 0.28; on HIV-RT (analogue 3 μM + AZT 0.01 μM, Trial 2) it was 0.56. Besides, the Combination index on HIV-RT (analogue 6 μM + AZT 0.007 μM, Trial 1) turned out to be 0.32; on HIV-RT (analogue 6 μM + AZT 0.007 μM, Trial 2), 0.60; at HIV-RT (analogue 6 μM + AZT 0.01 μM, Trial 1), 0.28; on HIV-RT (analogue 6 μM + AZT 0.01 μM, Trial 2) it was 0.75.

For the molecule `CCCCCCCCOC(=O)c1cc2c([nH]c3ccccc32)c(-c2ccc3c(n2)C(=O)C(N)=CC3=O)n1` [Compound 20, Demethyllavendamycin n-Octyl Ester], the results for the IC50 in experiment [1] (setting [2]) and in experiment [1] (read-out: IC50 against HIV-RT) were 7.1 ± 2.7 µM and less than 8 µM, respectively. Further, the Combination index was 0.68 and 0.66 on HIV-RT; 0.65 on HIV-RT (setting [3]); 0.61 at HIV-RT (setting [4]); 0.77 at HIV-RT (setting [5]); 0.77 at HIV-RT (setting [6]); 0.97 at HIV-RT (setting [7]). Further, the Combination index at HIV-RT (setting [8]) is given as 1.00; at HIV-RT (setting [9]) it was 0.62; at HIV-RT (setting [10]), 0.61; at HIV-RT (setting [11]), 0.60; at HIV-RT (setting [12]) it was 0.61; at HIV-RT (setting [13]), 0.86. Moreover, the Combination index at HIV-RT (setting [14]) is on record as 0.88; on HIV-RT (setting [15]), 0.64; at HIV-RT (setting [16]), 0.63; at HIV-RT (setting [17]), 0.61; on HIV-RT (setting [18]), 0.64; at HIV-RT (setting [19]) it was 0.83. Further, the Combination index on HIV-RT (setting [20]) was 0.83; at HIV-RT (setting [21]), 0.70; at HIV-RT (setting [22]), 0.69; at HIV-RT (setting [23]), 0.64; at HIV-RT (setting [24]), 0.63.
